Among the data in patent US8815909B2, “Diaminocyclohexane compounds and uses thereof” (Bristol-Myers Squibb Company, priority 2011, dated 2014) are EC50 values, retold here.

T1 sequence (P50391 whole entry): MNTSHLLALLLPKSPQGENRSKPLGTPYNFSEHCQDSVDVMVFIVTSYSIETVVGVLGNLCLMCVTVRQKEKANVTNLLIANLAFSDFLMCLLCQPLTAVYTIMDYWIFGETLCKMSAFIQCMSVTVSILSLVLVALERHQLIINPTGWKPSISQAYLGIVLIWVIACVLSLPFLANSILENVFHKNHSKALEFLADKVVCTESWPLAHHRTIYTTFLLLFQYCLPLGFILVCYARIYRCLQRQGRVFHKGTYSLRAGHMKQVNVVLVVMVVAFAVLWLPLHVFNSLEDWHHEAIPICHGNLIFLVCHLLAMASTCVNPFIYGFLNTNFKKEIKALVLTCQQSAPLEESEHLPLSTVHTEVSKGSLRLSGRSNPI

One experiment has as its target T1, human Y4 receptor (Homo sapiens, UniProt P50391).
T1 construct: expressed in transfected cells
Nature of the experiment: NPY4 cAMP HTRF Agonist Assay (inhibitory cAMP assay, Gi activation by Y4 agonism). It is filed as cell-based. Particulars: TABLE 2, R2 is Phenyl-CN; read-out: hY4 CAMP EC50. A digest of the protocol: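 CHO cells stably expressing human Y4, 5000/well, exposed to compound with forskolin and IBMX in PBS for 30 min at room temperature. Gi-mediated inhibition of cAMP then measured by HTRF after 1 h with d2-conjugate and anti-cAMP cryptate.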
Take `C=Cc1ccnc(N[C@@H]2CCCC[C@H]2N[C@H]2CCCN(c3ccc(C#N)cc3)C2)c1` [Example 246]: the 50% effective concentration (EC50) – broadly, the concentration at which the effect is half-maximal – was determined as 379 nM.
As for `COc1ccc(-c2ccnc(N[C@@H]3CCCC[C@H]3N[C@H]3CCCN(c4ccc(C#N)cc4)C3)c2)cn1` [Example 222], the half-maximal effective concentration (EC50) is 46 nM.
Still for that read-out and setting: the same measure for `CNC(=O)c1cccc(-c2ccnc(N[C@@H]3CCCC[C@H]3N[C@H]3CCCN(c4ccc(C#N)cc4)C3)c2)c1` [Example 261]: 9 nM; for `N#Cc1ccc(N2CCC[C@H](N[C@@H]3CCCC[C@H]3Nc3cc(-c4ccccc4C#N)ccn3)C2)cc1` [Example 274]: 272 nM.
Still for that read-out and setting: in the case of `N#Cc1ccc(N2CCC[C@H](N[C@@H]3CCCC[C@H]3Nc3cc(Cc4ccn[nH]4)ccn3)C2)cc1` [Example 214] it was 964 nM.

The experiment is the same for the next values; noted with them: TABLE 4, R2 is Pyridinyl-CN; read-out: hY4 CAMP EC50.
With `N#Cc1ccc(N2CCCC(N[C@@H]3CCCC[C@H]3Nc3ncc(-c4ccc(OC(F)(F)F)cc4)o3)C2)nc1` (stereo partly shown) [Example 315], the EC50 is 15 nM.
Still for that read-out and setting: in the case of `N#Cc1cc(N2CCC[C@H](N[C@@H]3CCCC[C@H]3Nc3ncc(-c4ccc(OC(F)(F)F)cc4)o3)C2)ccn1` [Example 307] it was 7 nM; in that of `N#Cc1ccc(N2CCC[C@H](N[C@@H]3CCCC[C@H]3Nc3cc(-c4cccc(C(N)=O)c4)ccn3)C2)nc1` [Example 300], 130 nM.

The same experiment, now with this note: TABLE 5, R2 is Pyridinyl-CF3; read-out: hY4 CAMP EC50.
For the molecule `NC(=O)c1cccc(-c2ccnc(N[C@@H]3CCCC[C@H]3N[C@H]3C[C@@H]4C[C@H]3N(c3ccc(C(F)(F)F)cn3)C4)c2)c1` [Example 337], the EC50 is 26 nM.
On the same count and under the same terms, the same measure for `FC(F)(F)Oc1ccc(-c2cnc(N[C@@H]3CCCC[C@H]3N[C@H]3CCCN(c4ccnc(C(F)(F)F)c4)C3)o2)cc1` [Example 336]: 212 nM.

Staying with this experiment, now noted: human Y4 receptor, cAMP; read-out: hY4 CAMP EC50.
On to `NC(=O)c1cccc(-c2ccnc(N[C@@H]3CCCC[C@H]3N[C@H]3C[C@@H]4C[C@H]3N(c3ncc(C(F)(F)F)cn3)C4)c2)c1` [Example 424], for which the EC50 worked out at 69 nM.
For the molecule `Cn1nnc(-c2ccc(N3CCC[C@H](N[C@@H]4CCCC[C@H]4Nc4cc(-c5cccc(C(N)=O)c5)ccn4)C3)cc2)n1` [Example 505], the half-maximal effective concentration (EC50) is 9 nM.
Still for that read-out and setting: in the case of `NC(=O)c1cccc(-c2ccnc(N[C@@H]3CCCC[C@H]3N[C@H]3CCCN(c4ccc(-n5cncn5)cc4)C3)c2)c1` [Example 512] it was 650 nM.
The same measure, in the same setting: the same measure for `Cc1nnc(-c2ccc(N3CCCC(N[C@@H]4CCCC[C@H]4Nc4cc(-c5ccncc5)ccn4)C3)cc2)o1` (stereo partly shown) [Example 369]: 5 nM; for `Cc1nc(-c2ccc(N3CCC[C@H](N[C@@H]4CCCC[C@H]4Nc4cc(-c5cccc(OC(F)(F)F)c5)ccn4)C3)cc2)no1` [Example 341]: 123 nM.
Turning to `N#Cc1cnc(N2C[C@@H]3C[C@H](N[C@@H]4CCCC[C@H]4Nc4ncc(-c5ccc(OC(F)(F)F)cc5)o4)[C@H]2C3)nc1` [Example 440], the EC50 was found to be 15 nM.
Same read-out and setting: the same measure for `Cc1nnc(-c2ccc(N3CCCC(N[C@@H]4CCCC[C@H]4Nc4cc(-c5ccc(O)cc5)ccn4)C3)cc2)o1` (stereo partly shown) [Example 370]: 3 nM; for `COC(=O)Nc1cccc(-c2cnc(N[C@@H]3CCCC[C@H]3N[C@H]3CCCN(c4ccc5nc(C)nn5c4)C3)o2)c1` [Example 490]: 1 nM.
On to `Cn1nnc(-c2ccc(N3CCC[C@H](N[C@@H]4CCCC[C@H]4Nc4cc(-c5cccc(NS(C)(=O)=O)c5)ccn4)C3)cc2)n1` [Example 507], for which the concentration for a half-maximal effect (EC50) was 6 nM.
Same read-out and setting: in the case of `Cc1noc(-c2ccc(N3CCC[C@H](N[C@@H]4CCCC[C@H]4Nc4ncc(-c5ccc(OC(F)(F)F)cc5)o4)C3)cc2)n1` [Example 355] it was 225 nM; in that of `O=C(Nc1cccc(-c2cnc(N[C@@H]3CCCC[C@H]3N[C@H]3CCCN(c4ccc5ncnn5c4)C3)o2)c1)C1CC1` [Example 487], 16 nM.

Staying with this experiment, now noted: human Y4 stable CHO clonal cells, forskolin + IBMX; read-out: NPY4 cAMP HTRF Agonist Assay EC50.
Take `CCOC(=O)Nc1cccc(-c2cnc(N[C@@H]3CCCC[C@H]3N[C@H]3CCCN(c4cnc(C(F)(F)F)cn4)C3)o2)c1` [Example 98, Ethyl 3-(2-((1R,2R)-2-((S)-1-(5-(trifluoromethyl)pyrazin-2-yl)piperidin-3-ylamino)cyclohexylamino)oxazol-5-yl)phenylcarbamate]: the concentration for a half-maximal effect (EC50) was determined as 0.7 nM.
Consider `FC(F)(F)c1ccc(N2CCC[C@H](N[C@@H]3CCCC[C@H]3Nc3ncc(-c4ccccc4)s3)C2)cc1` [Example 72, (1R,2R)—N1-(5-Phenylthiazol-2-yl)-N2-((S)-1-(4-(trifluoromethyl)phenyl)piperidin-3-yl)cyclohexane-1,2-diamine], for which the EC50 worked out at 15 nM.
As for `N#Cc1ccc(N2CCC[C@H](N[C@@H]3CCCC[C@H]3Nc3ncc(-c4ccc(OC(F)(F)F)cc4)o3)C2)cc1Cl` [Example 38, 2-Chloro-4-((S)-3-((1R,2R)-2-(5-(4-(trifluoromethoxy)phenyl)oxazol-2-ylamino)cyclohexylamino)piperidin-1-yl)benzonitrile bis-trifluoroacetate], the 50% effective concentration (EC50) turned out to be 8 nM.
Same read-out and setting: in the case of `N#Cc1ccc(N2C[C@@H]3CC(N[C@@H]4CCCC[C@H]4Nc4ncc(-c5ccc(OC(F)(F)F)cc5)o4)[C@H]2C3)cc1` (stereo partly drawn) [Example 95, 4-((1R,4R)-6-((1R,2R)-2-(5-(4-(Trifluoromethoxy)phenyl)oxazol-2-ylamino)cyclohexylamino)-2-azabicyclo[2.2.1]heptan-2-yl)benzonitrile] it was 10 nM; in that of `FC(F)(F)Oc1ccc(N2CCC[C@H](N[C@@H]3CCCC[C@H]3Nc3nccc(-c4ccccc4)n3)C2)cc1` [Example 88, (1R,2R)—N1-(4-Phenylpyrimidin-2-yl)-N2-((S)-1-(4-(trifluoromethoxy)phenyl)piperidin-3-yl)cyclohexane-1,2-diamine], 704 nM; in that of `N#Cc1cnc(N2CCC[C@H](N[C@@H]3CCCC[C@H]3Nc3ncc(-c4ccccc4)o3)C2)nc1` [Example 82, 2-((S)-3-((1R,2R)-2-(5-Phenyloxazol-2-ylamino)cyclohexylamino)piperidin-1-yl)pyrimidine-5-carbonitrile], 107 nM.
Turning to `N#Cc1ccc(N2CCC[C@H](N[C@@H]3CCCC[C@H]3Nc3ncc(-c4ccc(OC(F)(F)F)cc4)o3)C2)cc1` [Example 56, 4-((S)-3-((1R,2R)-2-(5-(4-(Trifluoromethoxy)phenyl)oxazol-2-ylamino)cyclohexylamino)piperidin-1-yl)benzonitrile], the EC50 was 23 nM.
For `O=[N+]([O-])c1ccc(N2CCC[C@H](N[C@@H]3CCCC[C@H]3Nc3cc(-c4cccc(OC(F)(F)F)c4)ccn3)C2)cc1` [Example 23, (1R,2R)—N1-((S)-1-(4-Nitrophenyl)piperidin-3-yl)-N2-(4-(3-(trifluoromethoxy)phenyl)pyridin-2-yl)cyclohexane-1,2-diamine], the concentration giving a half-maximal response (EC50) is 71 nM.
The same measure, in the same setting: the same measure for `CNC(=O)c1cccc(-c2cnc(N[C@@H]3CCCC[C@H]3N[C@H]3CCCN(c4ccc(C(F)(F)F)cc4)C3)o2)c1` [Example 105, N-Methyl (3-(2-((1R,2R)-2((S)-1-(4-trifluoromethyl)phenyl)piperidin-3-ylamino)cyclohexylamino)oxazol-5-yl)benzamide]: 0.2 nM; for `C[C@]1(N[C@@H]2CCCC[C@H]2Nc2ncc(-c3ccc(OC(F)(F)F)cc3)o2)CCCN(c2ccc([N+](=O)[O-])cc2)C1` [Example 96, (1R,2R)—N1-((S)-3-Methyl-1-(4-nitrophenyl)piperidin-3-yl)-N2-(5-(4-(trifluoromethoxy)phenyl)oxazol-2-yl)cyclohexane-1,2-diamine bis-trifluoroacetate]: 1 nM.
For `N#Cc1ccc(N2CCC[C@H](N[C@@H]3CCCC[C@H]3Nc3cc(-c4ccccc4F)ccn3)C2)cc1` [Example 37, 4-((S)-3-((1R,2R)-2-(4-(2-Fluorophenyl)pyridin-2-ylamino)cyclohexylamino)piperidin-1-yl)benzonitrile tris-trifluoroacetate], the EC50 stood at 82 nM.

Still in this experiment, the particulars now being: second TABLE 1, R2 is Phenyl-CF3; read-out: hY4 CAMP EC50.
For the molecule `O=C(NC1CC1)c1cccc(-c2cnc(N[C@@H]3CCCC[C@H]3N[C@H]3CCCN(c4ccc(C(F)(F)F)cc4)C3)o2)c1` [Example 117], the EC50 is 1 nM.
Take `FC(F)(F)Oc1cccc(-c2cnc(N[C@@H]3CCCC[C@H]3N[C@H]3CCCN(c4ccc(C(F)(F)F)cc4)C3)nc2)c1` [Example 177]: the EC50 turned out to be 781 nM.
On the same count and under the same terms, in the case of `CC(C)NC(=O)c1cccc(-c2ccnc(N[C@@H]3CCCC[C@H]3N[C@H]3CCCN(c4ccc(C(F)(F)F)cc4)C3)c2)c1` [Example 147] it was 20 nM; in that of `CCNCc1cccc(-c2ccnc(N[C@@H]3CCCC[C@H]3N[C@H]3CCCN(c4ccc(C(F)(F)F)cc4)C3)c2)c1` [Example 142], 58 nM.
For `OCc1cc(-c2ccnc(N[C@@H]3CCCC[C@H]3N[C@H]3CCCN(c4ccc(C(F)(F)F)cc4)C3)c2)ccc1F` [Example 165], the EC50 was found to be 38 nM.
Regarding `FC(F)(F)c1ccc(N2CCC[C@H](N[C@@H]3CCCC[C@H]3Nc3cc(-n4cccc4)ccn3)C2)cc1` [Example 190], the EC50 was determined as 51 nM.
On the same count and under the same terms, the same measure for `FC(F)(F)c1ccc(N2CCC[C@H](N[C@@H]3CCCC[C@H]3Nc3cc(-c4cccc5c4CCNC5)ccn3)C2)cc1` [Example 145]: 905 nM; for `CNC(=O)c1cccc(-c2ccnc(N[C@@H]3CCCC[C@H]3N[C@H]3CCCN(c4ccc(C(F)(F)F)cc4)C3)c2)c1` [Example 130]: 1 nM.
The same measure, in the same setting: the same measure for `CCCCNC(=O)c1cccc(-c2ccnc(N[C@@H]3CCCC[C@H]3N[C@H]3CCCN(c4ccc(C(F)(F)F)cc4)C3)c2)c1` [Example 141]: 227 nM.
Still for that read-out and setting: in the case of `FC(F)(F)c1ccc(N2CCC[C@H](N[C@@H]3CCCC[C@H]3Nc3cc(-c4ccc5c(c4)CNCC5)ccn3)C2)cc1` [Example 146] it was 726 nM; in that of `N#Cc1ccnc(N[C@@H]2CCCC[C@H]2N[C@H]2CCCN(c3ccc(C(F)(F)F)cc3)C2)n1` [Example 194], 606 nM.
